Laboratory results as given in patent publication US9650395B2, “Antibacterial compounds and methods for use” (PTC Therapeutics, Inc., priority 2011, dated 2017).
Values after ≈ are worked out from the molar mass of the structure shown.

How the values were obtained:
[1] = test system: super sensitive Gram-negative Escherichia coli (E. coli) BAS849; experiment: Antibacterial activity, microbroth dilution MIC, E. coli BAS849; type: cell-based; details: Escherichia coli; E. coli BAS849, microbroth dilution; read-out: MIC, BAS849
[2] = test system: control Gram-negative E. coli 25922 strain; experiment: Antibacterial activity, microbroth dilution MIC, E. coli 25922; type: cell-based, Escherichia coli; details: Escherichia coli; E. coli 25922, microbroth dilution; read-out: MIC, 25922
[3] = test system: Gram-positive Staphylococcus aureus (S. aureus) 29213; experiment: Antibacterial activity, microbroth dilution MIC, S. aureus 29213; type: cell-based; details: Staphylococcus aureus; S. aureus 29213, microbroth dilution; read-out: MIC, 29213
[4] = test system: quinolone resistant E. coli LZ3111; experiment: Antibacterial activity, MIC, quinolone resistant E. coli LZ3111; type: cell-based, Escherichia coli; details: Escherichia coli, read-out: MIC, LZ3111
Excerpt: (§1) The antibacterial activity from a microbroth dilution method may be presented as the minimum inhibitory concentration (MIC in […]). The MIC value is the lowest concentration of a drug which prevents macroscopically visible bacterial growth under test conditions.
Mutations in these regions are known to confer a high level resistance to the quinolone class of antibiotics.

[5] = test system: E. coli ELZ4000 (MDR clinical isolate); experiment: Antibacterial activity, MIC, MDR E. coli ELZ4000; type: cell-based, Escherichia coli; details: Escherichia coli; E. coli ELZ4000, MDR clinical isolate; read-out: MIC ELZ4000
[6] = test system: E. coli ELZ4251 (MDR clinical isolate); experiment: Antibacterial activity, MIC, MDR E. coli ELZ4251; type: cell-based, Escherichia coli; details: Escherichia coli, E. coli ELZ4251, MDR clinical isolate; read-out: MIC ELZ4251
[7] = test system: Pseudomonas aeruginosa (P. aeruginosa) 27853; experiment: Antibacterial activity, MIC, P. aeruginosa 27853; type: cell-based; details: Pseudomonas aeruginosa, P. aeruginosa 27853; read-out: MIC 27853
Excerpt: as §1
Antibacterial activity of test compounds against the Gram-negative bacterium Pseudomonas aeruginosa (P. aeruginosa) 27853 is shown in Table 5.

[8] = test system: Haemophilus influenzae (H. influenzae) 49247; experiment: Antibacterial activity, MIC, H. influenzae 49247; type: cell-based; details: Haemophilus influenzae; H. influenzae 49247; read-out: MIC 49247
Excerpt: as §1
Antibacterial activity of test compounds against the Gram-negative bacteria Haemophilus influenzae (H. influenzae) 49247, Moraxella catarrhalis (M. catarrhalis) 25238 and Neisseria meningitidis (N. meningitidis) 13090 is shown in Table 6.

[9] = test system: Moraxella catarrhalis (M. catarrhalis) 25238; experiment: Antibacterial activity, MIC, M. catarrhalis 25238; type: cell-based; details: Moraxella catarrhalis, M. catarrhalis 25238; read-out: MIC 25238
[10] = test system: Neisseria meningitidis (N. meningitidis) 13090; experiment: Antibacterial activity, MIC, N. meningitidis 13090; type: cell-based; details: Neisseria meningitidis; N. meningitidis 13090; read-out: MIC 13090

| Compound | MIC [1] [µg/mL] | MIC [2] [µg/mL] | MIC [3] [µg/mL] | MIC [4] [µg/mL] | MIC [5] [µg/mL] | MIC [6] [µg/mL] | MIC [7] [µg/mL] | MIC [8] [µg/mL] | MIC [9] [µg/mL] | MIC [10] [µg/mL] |
| --- | --- | --- | --- | --- | --- | --- | --- | --- | --- | --- |
| CCc1cc(C(=O)O)c(=O)[nH]c1-c1ccc(N2CCOCC2)cc1 [Cpd 110, 5-ethyl-6-[4-(morpholin-4-yl)phenyl]-2-oxo-1,2-dihydropyridine-3-carboxylic acid] | < 1 | 3.5 to 12.5 (≈ 10.7 to 38.1 µM) | 12.5 to 150 (≈ 38.1 to 457 µM) | 12.5 to 150 (≈ 38.1 to 457 µM) | 12.5 to 150 (≈ 38.1 to 457 µM) | 12.5 to 150 (≈ 38.1 to 457 µM) | 12.5 to 150 (≈ 38.1 to 457 µM) | < 1 | < 1 | < 1 |
| CCc1c(-c2ccc(N3CC=CC3)cc2)[nH]c(=O)c(C(=O)O)c1O [Cpd 302, 6-[4-(2,5-dihydro-1H-pyrrol-1-yl)phenyl]-5-ethyl-4-hydroxy-2-oxo-1,2-dihydropyridine-3-carboxylic acid] | < 1 | 1 to 3.5 (≈ 3.06 to 10.7 µM) | < 1 | 12.5 to 150 (≈ 38.3 to 460 µM) | 12.5 to 150 (≈ 38.3 to 460 µM) | 12.5 to 150 (≈ 38.3 to 460 µM) | 3.5 to 12.5 (≈ 10.7 to 38.3 µM) | < 1 | < 1 | < 1 |
| CCc1cc(C(=O)O)c(=O)[nH]c1-c1ccc(N2CCCCC2)cc1 [Cpd 108, 5-ethyl-2-oxo-6-[4-(piperidin-1-yl)phenyl]-1,2-dihydropyridine-3-carboxylic acid] | < 1 | 12.5 to 150 (≈ 38.3 to 460 µM) | 12.5 to 150 (≈ 38.3 to 460 µM) | 12.5 to 150 (≈ 38.3 to 460 µM) | 12.5 to 150 (≈ 38.3 to 460 µM) | 12.5 to 150 (≈ 38.3 to 460 µM) | 12.5 to 150 (≈ 38.3 to 460 µM) | < 1 | < 1 | < 1 |
| CCc1cc(C(=O)O)c(=O)[nH]c1-c1ccc(N2CCC[C@@H]2C(F)(F)F)cc1 [Cpd 141, 5-ethyl-2-oxo-6-{4-[(2R)-2-(trifluoromethyl)pyrrolidin-1-yl]phenyl}-1,2-dihydropyridine-3-carboxylic acid] | < 1 | 12.5 to 150 (≈ 32.9 to 394 µM) | 3.5 to 12.5 (≈ 9.2 to 32.9 µM) | 12.5 to 150 (≈ 32.9 to 394 µM) | 12.5 to 150 (≈ 32.9 to 394 µM) | 12.5 to 150 (≈ 32.9 to 394 µM) | 12.5 to 150 (≈ 32.9 to 394 µM) | < 1 | < 1 | < 1 |
| CCc1cc(C(=O)O)c(=O)[nH]c1-c1ccc(N2CC[C@@H](F)C2)cc1 [Cpd 154, 5-ethyl-6-{4-[(3R)-3-fluoropyrrolidin-1-yl]phenyl}-2-oxo-1,2-dihydropyridine-3-carboxylic acid] | < 1 | 1 to 3.5 (≈ 3.03 to 10.6 µM) | 3.5 to 12.5 (≈ 10.6 to 37.8 µM) | 12.5 to 150 (≈ 37.8 to 454 µM) | 12.5 to 150 (≈ 37.8 to 454 µM) | 12.5 to 150 (≈ 37.8 to 454 µM) | 12.5 to 150 (≈ 37.8 to 454 µM) | < 1 | < 1 | < 1 |
| CC(C)c1c(-c2ccc(N(C)C)cc2)[nH]c(=O)c(C(=O)O)c1O [Cpd 96, 6-[4-(dimethylamino)phenyl]-4-hydroxy-2-oxo-5-(propan-2-yl)-1,2-dihydropyridine-3-carboxylic acid] | < 1 | 3.5 to 12.5 (≈ 11.1 to 39.5 µM) | 3.5 to 12.5 (≈ 11.1 to 39.5 µM) | 12.5 to 150 (≈ 39.5 to 474 µM) | 12.5 to 150 (≈ 39.5 to 474 µM) | 12.5 to 150 (≈ 39.5 to 474 µM) | 12.5 to 150 (≈ 39.5 to 474 µM) | < 1 | < 1 | < 1 |
| C=CCN(CC=C)c1ccc(-c2[nH]c(=O)c(C(=O)O)c(O)c2CC)cc1 [Cpd 300, 6-{4-[di(prop-2-en-1-yl)amino]phenyl}-5-ethyl-4-hydroxy-2-oxo-1,2-dihydropyridine-3-carboxylic acid] | 1 to 3.5 (≈ 2.82 to 9.88 µM) | 12.5 to 150 (≈ 35.3 to 423 µM) | 1 to 3.5 (≈ 2.82 to 9.88 µM) | 12.5 to 150 (≈ 35.3 to 423 µM) | 12.5 to 150 (≈ 35.3 to 423 µM) | 12.5 to 150 (≈ 35.3 to 423 µM) | – | 12.5 to 150 (≈ 35.3 to 423 µM) | < 1 | < 1 |
| CCc1c(-c2ccc(N3CCCC3=O)cc2)[nH]c(=O)c(C(=O)O)c1O [Cpd 115, 5-ethyl-4-hydroxy-2-oxo-6-[4-(2-oxopyrrolidin-1-yl)phenyl]-1,2-dihydropyridine-3-carboxylic acid] | < 1 | 3.5 to 12.5 (≈ 10.2 to 36.5 µM) | 12.5 to 150 (≈ 36.5 to 438 µM) | 12.5 to 150 (≈ 36.5 to 438 µM) | 12.5 to 150 (≈ 36.5 to 438 µM) | 12.5 to 150 (≈ 36.5 to 438 µM) | 12.5 to 150 (≈ 36.5 to 438 µM) | < 1 | < 1 | < 1 |
